Experimental data reported in US10220033B2, “Substituted benzoxazepine for cancer therapy” (University of Cape Town, priority 2014, dated 2019).

Key:
Assay type in all cases: cell-based
[1] = test system: NFAT transcriptional activity in NFAT-transfected HeLa cells; experiment: NFAT luciferase reporter assay; settings: stimulated with TPA and ionomycin (FIGS. 16-20)
Protocol: To assay for NFAT luciferase activity, 30 000 HeLa cells were plated per well in 24-well plates, and transfected with 50 ng GFP-NFAT plasmid (Addgene plasmid #24219, gift of Jerry Crabtree (Beals C R, Clipstone N A, Ho S N, Crabtree G R. Nuclear localization of NF-ATc by a calcineurin-dependent, cyclosporin-sensitive intramolecular interaction. Genes Dev 1997 Apr. 1; 11(7):824-34)), 50 ng NFAT-luciferase (Addgene plasmid #10959, gift of Toren Finkel (Ichida M, Finkel T. Ras regulates NFAT3 activity in cardiac myocytes. J Biol Chem 2001 Feb. 2; 276(5):3524-30)), and 5 ng pRL-TK, using 0.4 μl Genecellin™ Transfection Reagent (Celtic Molecular Diagnostics, South Africa). The NFAT-luciferase reporter plasmid contains three tandem repeats of a 30 bp fragment of the IL-2 promoter known to bind NFAT. The following day cells were treated with 10 or 15 μM Compound A and after an overnight incubation, stimulated with 100 nM TPA (Sigma) and 1.3 μM Ionomycin (Santa Cruz Biotechnology, Santa Cruz, Calif., USA) for 5 hours, following which luciferase activity was measured.
An assay for nuclear NFAT following ionomycin and Compound A treatment was carried out, using an NFAT-luciferase reporter that is activated by nuclear NFAT. The phorbol ester TPA was used to co-stimulate NFAT, as it has been shown previously that TPA and ionomycin elicit synergistic stimulation of NFAT luciferase activity (Northrop J P, Ullman K S, Crabtree G R. Characterization of the nuclear and cytoplasmic components of the lymphoid-specific nuclear factor of activated T cells (NF-AT) complex. J Biol Chem 1993 Feb. 5; 268(4):2917-23).

[2] = test system: non-cancer fibroblast cells; experiment: MTT cell viability, summary statement for non-cancer cells
Protocol: Cells were plated in 96-well plates and treated with varying concentrations of a test compound for 48 hours, after which MTT dye, 3-(4,5-dimethylthiazol-2-yl)-2,5-diphenyltetrazolium bromide (Sigma), was added, and crystals solubilised 4 hours later using Solubilisation Reagent (10% SLS in 0.01 M HCl). Absorbencies were measured at 595 nm the following day using a BioTek microplate spectrophotometer (Winooski, Vt., USA) and IC50 curves were generated using GraphPad Prism.

[3] = test system: p65 nuclear import (Kpnβ1 cargo protein); experiment: Percentage of nuclear and cytoplasmic p65 (FIG. 4)

For `CN(C)CCCn1c(N)c(-c2nc3ccccc3[nH]2)c2nc3ccccc3nc21` [Compound A, 3-(1H-benzimidazol-2-yl)-1-(3-dimethylaminopropyl)pyrrolo[5,4-b]quinoxalin-2-amine], the “NFAT activation (NFAT-luciferase reporter)” value [1] was “significantly diminished NFAT activation”, the IC50 [2] was 20 to 30 µM and the “nuclear import of Kpnβ1 cargo protein (percentage of nuclear p65 relative to cytoplasmic p65)” value [3] was “inhibit the nuclear import of Kpnβ1 cargo protein”.
